These results are taken from US11351156B2, “Combination treatment of pancreatic cancer” (INSERM (Institut National de la Santé et de la Recherche …, priority 2017, dated 2022).

Read-outs that look alike come from different tables or passages of the source.

One data set deals with pancreatic cancer. The conditions noted are these: standard of line chemotherapy; cited from earlier work.
In data set [1] the test system is gemcitabine-resistant metastatic pancreatic cancer. To be noted: gemcitabine-resistant metastatic pancreatic cancer patients, cited from earlier work.
For data set [2], the system named is Panc1 cells and human primary Akt2-amplified pancreatic tumour cell. The conditions noted are these: cited from earlier work.
Data set [3] deals with AZD6244-resistant tumours. To be noted: added to AZD6244; cited from earlier work.
The subject of data set [4] is serum-induced phosphopeptides in Capan-1 cells. In words: SILAC phosphoproteomics of Capan-1 cells under PI3K inhibition. Format: cell-based, human. As for the experimental part: Light amino acid-labelled and heavy amino acid-labelled Capan-1 cells (respectively called thereafter “light” and “heavy” cells) were washed twice with phosphate buffer saline (PBS; SIGMA; D8537), trypsined (GE Healthcare; L11-002) and plated at a concentration of 2.5.10^6 cells in a 14.4 cm-diameter dish (Dutscher, 055063). After 48 h, cells were serum-starved during 16 h, over-night. Light and heavy cells were pre-treated respectively with inhibitors or their accordingly diluted vehicule (DMSO) during 1 h, then stimulated or not for 10 min or 24 h with 2% dialysed FBS. After 10 min and 24 h of FBS stimulation, heavy cells and light cells were maintained on ice, washed three times with cold PBS and lysed.
Cells were lysed on the plate with 2 mL of lysis buffer (Tris-HCl 100 mM-pH 7.8 (Sigma, T1503), SDS 1% (Sigma, L3771), EDTA 5 mM-pH7.8 (Euromedex, EU-0007-B), proteases and phosphatases inhibitors (Sigma) containing 1× cOmplete Roche proteases inhibitors cocktail (SIGMA, 04693132001), NaF 10 mM (Sigma, S1504), NaPPi 10 mM (Sigma, S6422) and Na3VO4 10 mM (Sigma, 450243)) during 30 min at 4° C. in dark. Cells were scraped, harvested and incubated 20 min at 57° C. To eliminate DNA-dependent viscosity, samples were sonicated (amplitude 40%, pulse 1 sec, interval 1 sec during 60 sec). Three other lysis buffers were also tested (Buffer 1: NH4HCO3 100 mM pH7.8, Urea 8M; Buffer 2: Tris-HCl 100 mM pH7.8, Urea 8M; Buffer 3/RIPA: Tris-HCl50 mM, NaCl 150 mM, Nonidet P-40 1% pH 7.8, SDS 0.1% (w/v)); the chosen buffer allowed the better extraction of phospho-tyrosine proteins as assessed by Western blotting with anti-pY (p-Tyr100) antibody (Cell Signaling Technology; 8954S) as compared to in gel 1-DE profile. Cell lysates were then cleared from insoluble fraction by centrifugation at 10,000×g for 15 min at 25° C., and protein concentration was measured by 2-D Quant kit (GE Healthcare, 80-6483-56). For each biological replicate, light and heavy lysates were mixed at a 1:1 ratio for a total amount of 6 mg.
Protein samples were reduced with 100 mM DTT (Sigma, D9163) for 35 min at 57° C. and then handled according to the FASP (Filter Aided Sample Preparation) digestion protocol using Amicon Ultra-15 Centrifugal Filter device (10 kDa cut-off, MILLIPORE, UFC901096). The 1st step consisted in the replacement of SDS by urea, then a dilution with UA buffer (Tris-HCl100 mM-pH 8.5, Urea 8M (Sigma, U5128)) and an alkylation with CAA solution (Tris-HCl 100 mM pH 8.5, Urea 8M, Chloroacetamide 50 mM (Sigma, CO267)). For optimization of trypsin efficiency, urea concentration was decreased at 200 mM with Ammonium Bicarbonate buffer (NH4HCO3 0.05M (SIGMA, 09830) and 10 mM phosphatase inhibitors as previously used in lysis buffer). In a 2nd step, Trypsin (Promega, V5117) digestion was performed at 1:50 (w/w) trypsin:protein ratio overnight at 37° C. on the Amicon Ultra-15 Centrifugal Filter. Tryptic peptides were acidified with 1% trifluoroacetic acid (TFA—Sigma, T6508), cleared at 5,000 rpm for 15 minutes at 15° C., and desalted using C18 Sep-Pak plus cartridges (Waters, WAT043395, 500 mg sorbent). Resin was conditioned with 15 mL in 80% Acetonitrile (ACN—Sigma, 34888) then equilibrated with 15 mL in 0.1% TFA. After the loading step, sample was washed with 15 mL in 0.1% TFA, and the elution was performed with 4 mL in 80% ACN, 0.1% TFA). Eluted peptides were lyophilized with a speed-vacuum over night.
Protocol for the enrichment with TiO2 beads is based on Larsen et al., [45] and Jensen et al.. […]

The test system of data set [5] is BxPC-3 cancer cells xenografts. The conditions noted are these: given after establishment of xenografts; cited from earlier work.
Data set [6] relates to primary patient-derived PDAC cells. The conditions noted are these: mouse, in vivo; cited from earlier work.
The next data set has as its system KPC pancreatic tumour. The conditions noted are these: cited from earlier work.
In data set [7] the test system is KPC mouse model that rapidly develops PDAC. To be noted: cited from earlier work; for tumour progression / tumour size: 12-week old KPC mice, 7 day-treated; for murine lethality / survival: treatment started at 8 weeks of age.
For another data set, the system named is pAkt. In words: Western blot of Akt phosphorylation in serum-starved, inhibitor-pretreated, stimulated Capan-1 cells. The conditions noted are these: for pS473 and pT308Akt levels: Capan-1, after 10 min stimulation with serum. Format: cell-based, human. On the procedure: Pancreatic cancer cell were cultured consistent conditions. Eight hours after plating of cells, they were serum-starved during 16 h, over-night. Cells were pre-treated with inhibitors or their accordingly diluted vehicle (DMSO) during 1 h, then stimulated or not for 10 min or 24 h with 2% FBS, for 10 min with […] EGF, 100 nM Insulin, 50 ng/ml IGF-1, 1 μM LPA, 30 ng/ml PDGF, 200 nM S1P, 1× amino acids or 2 g/l glucose.
Cells were harvested on ice, washed twice with cold PBS, collected, and frozen at −80° C.
For orientation: Immunoblotting shows a protein as a band on a membrane.

In the case of `Nc1ccn([C@@H]2O[C@H](CO)[C@@H](O)C2(F)F)c(=O)n1` [gemcitabine], the “increase of patient survival” value with pancreatic cancer is listed as “only a few weeks”.
As to `CO[C@H]1C[C@@H]2CC[C@@H](C)[C@@](O)(O2)C(=O)C(=O)N2CCCC[C@H]2C(=O)O[C@H]([C@H](C)C[C@@H]2CC[C@@H](OC(=O)C(C)(CO)CO)[C@H](OC)C2)CC(=O)[C@H](C)/C=C(\C)[C@@H](O)[C@@H](OC)C(=O)[C@H](C)C[C@H](C)/C=C/C=C/C=C/1C` [Temsirolimus], the “clinical / therapeutic activity” value in [1] was “failed to demonstrate the therapeutic activity”.
On to `Cn1c(=O)n(-c2ccc(C(C)(C)C#N)cc2)c2c3cc(-c4cnc5ccccc5c4)ccc3ncc21` [NVP-BEZ235], for which, in data set [2], the “combination effect with panobinostat” value is reported as “additive effect” and the tumour cell growth result is listed as “reduced”. For the same compound, the “prevention of resistance to AZD6244” value in [3] is “able to prevent this process”.
On to `O=c1cc(N2CCOCC2)oc2c(-c3ccccc3)cccc12` [LY-294002], for which the “number of serum-induced phosphopeptides changed” value in data set [4] (Capan-1, 10 min) is reported as 427; in data set [4] (Capan-1, 24 h) it was 258.
`CS(=O)(=O)N1CCN(Cc2cc3nc(-c4cccc5[nH]ncc45)nc(N4CCOCC4)c3s2)CC1` [GDC-0941]: the tumour volumes result in data set [5] is recorded as “did not impair tumour volumes”. Also, the “response of orthotopic patient-derived PDAC” value in data set [6] is reported as “responded the same way”. The disease status entry with KPC pancreatic tumour (14 days after established tumours detection) is given as “stable disease”. Further, in the data set with KPC pancreatic tumour (KPC mice, 14 days), the pancreatic tumour growth result is “efficiently prevent”.
For `CO[C@H]1C[C@@H]2CC[C@@H](C)[C@@](O)(O2)C(=O)C(=O)N2CCCC[C@H]2C(=O)O[C@H]([C@H](C)C[C@@H]2CC[C@@H](OCCO)[C@H](OC)C2)CC(=O)[C@H](C)/C=C(\C)[C@@H](O)[C@@H](OC)C(=O)[C@H](C)C[C@H](C)/C=C/C=C/C=C/1C` [RAD001], in data set [1], the “clinical / therapeutic activity” value is listed as “only a minimal clinical action” and the tolerability entry is reported as “well tolerated”. Besides, the “clinical / therapeutic activity” value in data set [1] (listed as Everolimus) is recorded as “failed to demonstrate the therapeutic activity”.
As for `Nc1cc(C(F)(F)F)c(-c2cc(N3CCOCC3)nc(N3CCOCC3)n2)cn1` [BKM120], in data set [7], the “tumour progression / tumour size” value is “progressive disease” and the “murine lethality / survival” value is “nearly no effect”.
`O=C1NC(=O)/C(=C/c2ccc(-c3ccc(F)cc3O)o2)S1` [AS-252424]: the “pS473 and pT308Akt levels” value in the data set on pAkt is “significantly inhibited”. Also, the “GPCR-driven (LPA) short-term phosphorylation of Akt” value in the data set with pAkt (LPA stimulation) is “inhibited”. Also, the “number of serum-induced phosphopeptides changed” value in data set [4] (Capan-1, 10 min) is reported as 504; in [4] (Capan-1, 24 h), 404.
Consider `Cc1nc(NC(=O)N2CCC[C@H]2C(N)=O)sc1-c1csc(C(C)(C)C)n1` [A66], for which the “pS473 and pT308Akt levels” value in the data set on pAkt is listed as “significantly inhibited”. Also, the “RTK-driven (EGF) short-term phosphorylation of Akt” value in the data set with pAkt (EGF stimulation) was “inhibited”. In the data set with pAkt (serum stimulation, time course up to 48 h), the “re-activation of pAkt upon long-term PI3K inhibition” value was “prevents this re-activation of pAkt”. The “number of serum-induced phosphopeptides changed” value in data set [4] (Capan-1, 10 min) worked out at 449; in data set [4] (Capan-1, 24 h) it was 404.
With `CO[C@H]1C[C@@H]2CC[C@@H](C)[C@@](O)(O2)C(=O)C(=O)N2CCCC[C@H]2C(=O)O[C@H]([C@H](C)C[C@@H]2CC[C@@H](O)[C@H](OC)C2)CC(=O)[C@H](C)/C=C(\C)[C@@H](O)[C@@H](OC)C(=O)[C@H](C)C[C@H](C)/C=C/C=C/C=C/1C` [Sirolimus], the tolerability result in data set [1] is on record as “well tolerated”.
Regarding `Cn1cnc2c(F)c(Nc3ccc(Br)cc3Cl)c(C(=O)NOCCO)cc21` [AZD6244], in data set [7], the “tumour progression / tumour size” value was “progressive disease” and the “murine lethality / survival” value is “nearly no effect”.
Take `Cc1cc(C(C)Nc2ccccc2)c2nc(N3CCOCC3)cc(=O)n2c1` (stereo not shown) [TGX-221]: the “pS473 and pT308Akt levels” value with pAkt is given as “significantly inhibited”. The “number of serum-induced phosphopeptides changed” value is 436 in data set [4] (Capan-1, 10 min) and 437 in data set [4] (Capan-1, 24 h).
